We go through six compounds from US20250361219A1, “SYSTEMS AND METHODS FOR SEPARATION OF CHEMICAL SPECIES, SUCH AS CANNABINOIDS, USING MULTIPLE LIQUID PHASES” (priority 2022, published 2025).

Read-outs that look alike come from different tables or passages of the source.

The nature of data set [1]: Batch extraction of rac-propranolol with dibutyl L-(+)-tartrate / boric acid, dichloromethane/water. As to conditions: for distribution coefficient: dichloromethane with dibutyl-L-tartrate / water with boric acid. It is filed as physicochemical.
Procedure: One mobile phase was used—a 54/46 v/v methanol/water solution containing 110 mM sodium acetate adjusted to a pH of 6 using glacial acetic acid, 215 mM boric acid, and 285 mM dibutyl L-(+)-tartrate. The flow rate was 0.23 mL/min. The column was heated to 25° C. and the detection was monitored at a wavelength of 275 nm. Samples were diluted 20× in 54/46 v/v methanol/water solution containing 110 mM sodium acetate buffered to a pH of 6 with glacial acetic acid and the injection volume was 10 μL.
Batch extraction experiments were performed as follows. 2 mL of 1 mg/mL rac-Propranolol in water containing 152.1 mM boric acid was mixed with 2 mL of 152.1 mM dibutyl L-(+)-tartrate in dichloromethane. The solution was vigorously shaken for approximately 2 minutes and allowed to fully settle. 20 μL of each phase were diluted with 380 μL of 110 mM sodium acetate in a 54/46 methanol/water solution buffered to a pH of 6 using glacial acetic acid and the solute concentrations were determined by HPLC.
The conditions of data set [2]: 1,2-Dichloroethane/water (literature), 45x molar excess dibutyl-L-tartrate and boric acid; listed as R/S-PRP; cited from earlier work.
For data set [3] the following is noted: Current platform (10/5/5 DCM/methanol/water ratio).
Procedure: Batch extraction experiments were performed as follows. 1 mg of each solute was added to 2 mL of dichloromethane, 1 mL of water, and 1 mL of methanol. The solution was vigorously shaken for around 2 minutes and allowed to fully settle. 100 μL of each phase were diluted with 900 μL of methanol and the solute concentrations were determined by HPLC.
The conditions of data set [4]: Literature (10/6/4 DCM/methanol/water ratio); cited from earlier work.
A short description of data set [5]: Partition coefficients of delta-9- and delta-8-tetrahydrocannabinol in liquid mixtures (Examples 1-9). The data set is classed as physicochemical. The protocol:
The cannabinoid sample contained both delta-9-tetrahydrocannabinol with delta-8-tetrahydrocannabinol. The liquid mixtures included an organic phase as the first liquid phase and a water soluble phase as the second liquid phase. The organic phase and the water soluble phase were in 1:1 volume ratio for all analyses. Various hydrocarbons were evaluated as the organic phase. These hydrocarbons included hexane, heptane, cyclohexane, pentane, 1-hexene, toluene, benzene, 1-octadecene, and dodecane. Various amide based solvents were evaluated as the water soluble phase. These amide based solvents included formamide (F), dimethyl formamide (DMF), methyl formamide (MF), dibutyl formamide (DBF).
Example 9. A mixture of formamide (F) and dimethyl formamide (DMF) and dibutyl formamide (DBF) at a volume ratio of 1:3:1 (20% F and 60% DMF and 20% DBF) was used as the water soluble phase. Hexane was used as the organic phase. […] The partition coefficients for each component (e.g., delta-9-tetrahydrocannabinol, delta-8-tetrahydrocannabinol) in the liquid mixture were determined by calculating a ratio of the concentration of the component in the water soluble phase over concentration of the component in the organic phase.

In data set [1], `CC(C)NC[C@@H](O)COc1cccc2ccccc12` [R-PRP, R-propranolol] displayed a distribution coefficient of 0.12.

Turning to `CC(C)NCC(O)COc1cccc2ccccc12` (centres unmarked) [R/S-propranolol], the Selectivity between enantiomers is reported as 2.58 ± 0.07 in data set [1] (Dichloromethane/water (experiment), 45x molar excess dibutyl-L-tartrate and boric acid); 2.54±0.13 in data set [2].

For the compound `CC(C)NCC(O)COc1cccc2ccccc12` (centres unmarked) [S-PRP], the distribution coefficient in data set [1] was 0.30.

For the compound `COc1cc(C=O)cc(OC)c1O` [Syringaldehyde, syringaldehyde], the figures for the “αx/pHBA (selectivity)” value in data set [3] and in data set [4] were 25.5 and 17.8, respectively.

On to `CCCCCc1cc(O)c2c(c1)OC(C)(C)[C@@H]1CCC(C)=C[C@@H]21` [delta-9-tetrahydrocannabinol], for which the “Kd9,THC/Kd8,THC” value in data set [5] (Example 1: F:DMF (9:16) / Hexane) stood at 1.47; in data set [5] (Example 2: F:DMF (9:16) / Heptane), 1.45; in data set [5] (Example 3: F:DMF (9:16) / Cyclohexane), 1.48; in data set [5] (Example 4: F:DMF (9:16) / Pentane) it was 1.36; in data set [5] (Example 5: F:DMF (9:16) / 1-Hexene), 1.37; in data set [5] (Example 6: F:DMF (1:1) / Dodecane) it was 1.39. For the same compound, the “Kd9,THC/Kd8,THC” value in data set [5] (Example 7: F:MF (1:1) / Hexane) came to 1.20; in data set [5] (Example 8: F:MF (2:3) / Hexane), 1.23; in data set [5] (Example 9: F:DMF:DBF (1:3:1) / Hexane), 1.39.

For the compound `O=C(O)c1ccc(O)cc1` [pHBA, para-hydroxybenzoic acid], the “αx/pHBA (selectivity)” value in data set [3] and in data set [4] was 1.00 in each case.
